Laboratory results: US7671057B2, “Therapeutic agent for type II diabetes comprising protease-inhibiting compound” (Ono Pharmaceutical Co., Ltd., priority 2004, dated 2010)
Entries after “also recorded” stand apart in the source; their conditions may differ.

Assays:
KK-A^y/Ta Jcl mice [1] = assay: Blood-sugar level, administration as admixture with food (Example 2); format: in vivo, mouse
Description: (§1) KK-A^y/Ta Jcl Mice (male, 6- to 7-weeks aged, the number of cases; 8 animals) were treated through individual administration, in the form of an admixture with a food, of the Test Compound 2 (N-allyl-N-{(2E)-3-[4-({4-[amino(imino)methyl]phenoxy}-carbonyl)phenyl]-2-methyl-2-propenoyl}glycine/dimethane-sulfonate) of the present invention and the Control Compound 1 (5-(4-[2-(5-ethylpyridine-2-yl)ethoxy]benzyl)-1,3-thiazolidine-2,4-dione; pioglitazone) at the daily dose of 16.8 mg/100 g-food for 7 consecutive days, whereby the control group was fed with an ordinary food alone.
(§2) Blood was drawn from the tail vein individually on the day (Day 1) preceding to administration of the Test Compound in the form of an admixture with a food, and on Days 2, 5, 7 and 14 of administration, and the blood samples were subjected to measurement of the blood-sugar level in accordance with the same procedure as described in Example 1, while, at the same time, the animals were weighed.

[2] = Body weight, administration as admixture with food (Example 2); format: in vivo, mouse
Description: as §1, §2

KK-A^y/Ta Jcl mice [3] = assay: Blood-sugar level at satiety, dose-ranging food admixture up to Day 28 (Example 3); format: in vivo, mouse; details: for Blood-sugar level: end of the test (Day 28)
Description: KK-A^y/Ta Jcl Mice (male, 6-weeks aged, the number of cases; 8 animals) were treated through individual administration, in the form of an admixture with a food, of the Test Compound 2 (N-allyl-N-{(2E)-3-[4-({4-[amino(imino)methyl]phenoxy}-carbonyl)phenyl]-2-methyl-2-propenoyl}glycine/dimethanesulfonate) of the present invention at the daily doses of 0.56 mg, 1.68 mg, 5.6 mg and 16.8 mg/100 g-food, respectively, and the Control Compound 1 (5-{4-[2-(5-ethylpyridine-2-yl)-ethoxy]benzyl}-1,3-thiazolidine-2,4-dion; pioglitazone) at the daily doses of 5.6 mg and 16.8 mg/100 g-food, respectively, […], whereby the control group was fed with an ordinary food alone.
Blood was drawn from the tail vein individually on the day preceding to administration of each compound in the form of an admixture with a food, and on Days 6, 11, 16, 21 and 28 of administration.
(§3) The blood samples taken from the tail vein on the respective specified days after the administration were subjected to measurement of the blood-sugar level in accordance with the method as described in Example 1, while the plasma glucagon level after the forced oral administration performed on Days 28 was measured in accordance with the ELISA method as described in Example 1. Also, the glycosylated hemoglobin (HbA1c) and GLP-1 levels were determined in accordance with the latex coagulation method and the ELISA method (YK160, GLP-1 EIA Kit, produced by K.K. Yanaihara Kenkyu-sho of Japan), respectively, while the TG level was measured in accordance with the method as described in Example 1. The total pancreatic insulin content after oral administration of each compound was determined by adding 75% ethanol to the isolated pancreas as frozen, followed by homogenization, and collecting the insulin fraction through Sep-Pak (C18; WATER) treatment of the supernatant liquid produced by centrifugation, followed by determination with the ELIZA method.

KK-A^y/Ta Jcl mice [4] = assay: Plasma GLP-1, glucagon, blood-sugar, HbA1c and TG 30 min after forced oral administration on Day 28 (Example 3); format: in vivo, mouse
Description: (§4) On Day 28 of administration of each compound in the form of an admixture with a food, furthermore, each animal after blood had been drawn from the tail vein was treated through individual forced oral administration of the Test Compound 2 in the form of the solutions individually consisting of 0.2, 0.6, 2.0 and 6.0 mg/mL-0.5% CMC suspension in each 5 mL/kg portion, as well as the Control Compound 1 in the form of the solutions individually consisting of 2.0 and 6 mg/mL-0.5% CMC suspension in each 5 ml/kg portion, followed by blood drawing 30 min. later and autopsy to thereby measure the weights of the pancreas, liver and kidney, whereby the control group was treated through administration of the 0.5% CMC suspension in the same portion.
as §3

KK-A^y/Ta Jcl mice [5] = assay: Weights of pancreas, liver and kidney at autopsy (Example 3); format: in vivo, mouse
Description: as §4

KK-A^y/Ta Jcl mice [6] = assay: Total pancreatic insulin content (Example 3); format: in vivo, mouse
Description: as §3

[7] = test system: pancreatic Langerhans' islets; assay: Histopathological analysis of the pancreas (Example 3); format: in vivo, mouse; details: Day 28
Description: Histopathological analysis of the pancreas (pathological analysis of the pancreatic Langerhans' islets (α-, β- and δ-cells) was carried out by embedding the tissue in paraffin, followed by thin slicing and respective staining through the Grimelius staining, Gomori's aldehyde-fuchsin staining and Hellman-Hellerstroem' staining.

[8] = target: leukotriene B4 (LTB4) receptor (Homo sapiens, UniProt Q15722); details: cited from earlier work
leukotriene B4 (LTB4) receptor, sequence (Q15722 whole entry): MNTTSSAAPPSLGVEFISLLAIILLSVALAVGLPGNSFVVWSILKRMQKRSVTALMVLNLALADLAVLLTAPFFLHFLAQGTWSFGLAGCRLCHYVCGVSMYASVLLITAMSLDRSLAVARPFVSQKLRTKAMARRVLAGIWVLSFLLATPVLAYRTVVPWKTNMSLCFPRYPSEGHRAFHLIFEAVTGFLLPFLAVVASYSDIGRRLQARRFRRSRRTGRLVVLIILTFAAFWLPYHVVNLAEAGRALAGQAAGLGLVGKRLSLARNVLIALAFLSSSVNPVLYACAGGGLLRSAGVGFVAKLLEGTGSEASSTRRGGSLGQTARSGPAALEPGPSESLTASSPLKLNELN

[9] = day preceding administration (baseline), 16.8 mg/100 g-food group
[10] = autopsy Day 28, Dose 0.56 (g/100 g-food)
[11] = autopsy Day 28, Dose 1.68 (g/100 g-food)
[12] = autopsy Day 28, Dose 16.8 (g/100 g-food)

SMILES: C=CCN(CC(=O)O)C(=O)/C(C)=C/c1ccc(C(=O)Oc2ccc(C(=N)N)cc2)cc1 [Test Compound 2, N-allyl-N-{(2E)-3-[4-({4-[amino(imino)methyl]phenoxy}-carbonyl)phenyl]-2-methyl-2-propenoyl}glycine/dimethane-sulfonate]
- Blood-sugar level Day 2 (KK-A^y/Ta Jcl mice [1]; 16.8 mg/100 g-food admixture): 286.5 ± 58.3 mg/dL
- Blood-sugar level Day 5 (KK-A^y/Ta Jcl mice [1]; 16.8 mg/100 g-food admixture): 314.8 ± 14.4 mg/dL
- Blood-sugar level Day 7 (KK-A^y/Ta Jcl mice [1]; 16.8 mg/100 g-food admixture): 291.0 ± 5.1 mg/dL
- Blood-sugar level Day 14 (KK-A^y/Ta Jcl mice [1]; 16.8 mg/100 g-food admixture): 248.0 ± 11.5 mg/dL
- Blood-sugar level Day 1 (KK-A^y/Ta Jcl mice [1]; [9]): 300.0 ± 18.9 mg/dL
- Blood-sugar lowering action (in words) (KK-A^y/Ta Jcl mice [1]; food admixture 16.8 mg/100 g-food, as from Day 5 afterwards): significant blood-sugar lowering action; also recorded: more potent blood-sugar lowering action
- Body weight Day 2 ([2]; 16.8 mg/100 g-food admixture): 29.8 ± 0.7 g
- Body weight Day 5 ([2]; 16.8 mg/100 g-food admixture): 30.6 ± 0.8 g
- Body weight Day 7 ([2]; 16.8 mg/100 g-food admixture): 32.4 ± 1.0 g
- Body weight Day 14 ([2]; 16.8 mg/100 g-food admixture): 34.6 ± 1.3 g
- Body weight Day 1 [2, 9]: 30.6 ± 0.6 g
- Effect on body weight (in words) ([2]; food admixture 16.8 mg/100 g-food, time course): not observed to produce any difference from the control group; also recorded: did not show any body-weight elevating actions
- Time-course changes in blood-sugar level at satiety vs Control Group (in words, FIG. 1) (KK-A^y/Ta Jcl mice [3]; 5.6 mg/100 g group): significant drop in the blood-sugar level at the end of the test
- Time-course changes in blood-sugar level at satiety vs Control Group (in words, FIG. 1) (KK-A^y/Ta Jcl mice [3]; 16.8 mg/100 g group): significant continued drops in the blood-sugar level
- Blood-sugar level (KK-A^y/Ta Jcl mice [3]; Dose 0.56 (g/100 g-food)): 524.6 ± 47.3 mg/dL
- Blood-sugar level (KK-A^y/Ta Jcl mice [3]; Dose 1.68 (g/100 g-food)): 620.9 ± 79.6 mg/dL
- Blood-sugar level (KK-A^y/Ta Jcl mice [3]; Dose 5.6 (g/100 g-food)): 369.7 ± 39.6 mg/dL
- Blood-sugar level (KK-A^y/Ta Jcl mice [3]; Dose 16.8 (g/100 g-food)): 251.2 ± 34.7 mg/dL
- Change in HbA1C level (in words) (KK-A^y/Ta Jcl mice [4]): decreased
- Change in TG level (in words) (KK-A^y/Ta Jcl mice [4]): decreased
- Change in blood-sugar level (in words) (KK-A^y/Ta Jcl mice [4]): decreased
- Change in plasma glucagon level (in words) (KK-A^y/Ta Jcl mice [4]): drops in the plasma glucagon level
- Change in plasma GLP-1 level (in words) (KK-A^y/Ta Jcl mice [4]; 30 min after forced oral administration): plasma GLP-1 increasing effect
- Weight of the kidney (in words) (KK-A^y/Ta Jcl mice [5]; autopsy Day 28): suppressed from rising
- Weight of the liver (in words) (KK-A^y/Ta Jcl mice [5]; autopsy Day 28): suppressed from rising
- Weight of the pancreas (in words) (KK-A^y/Ta Jcl mice [5]; autopsy Day 28): increased
- Weight Kidney (KK-A^y/Ta Jcl mice [5]; [10]): 0.47 ± 0.01 g
- Weight Liver (KK-A^y/Ta Jcl mice [5]; [10]): 2.01 ± 0.08 g
- Weight Pancreas (KK-A^y/Ta Jcl mice [5]; [10]): 0.342 ± 0.01 g
- Weight Kidney (KK-A^y/Ta Jcl mice [5]; [11]): 0.49 ± 0.01 g
- Weight Liver (KK-A^y/Ta Jcl mice [5]; [11]): 2.08 ± 0.07 g
- Weight Pancreas (KK-A^y/Ta Jcl mice [5]; [11]): 0.41 ± 0.02 g
- Weight Kidney (KK-A^y/Ta Jcl mice [5]; [12]): 0.41 ± 0.01 g
- Weight Liver (KK-A^y/Ta Jcl mice [5]; [12]): 1.52 ± 0.06 g
- Weight Pancreas (KK-A^y/Ta Jcl mice [5]; [12]): 0.45 ± 0.03 g
- Total pancreatic insulin content (in words) (KK-A^y/Ta Jcl mice [6]; Day 28): increase in the total pancreatic insulin content
- Total pancreatic insulin content (KK-A^y/Ta Jcl mice [6]; Day 28, Dose 1.68 (g/100 g-food)): 9.40 ± 2.24 µg
- Total pancreatic insulin content (KK-A^y/Ta Jcl mice [6]; Day 28, Dose 5.6 (g/100 g-food)): 17.11 ± 2.76 µg
- Number of pancreatic B-cells (postmortem findings) [7]: increase the number of pancreatic B-cells
- Size of Langerhans' cells of the pancreatic islets (postmortem findings) [7]: enlarge the Langerhans' cells of the pancreatic islets
- LTB4 receptor antagonistic action [8]: LTB4 antagonistic action
